# Reference: PMC13369845 (Oncogenesis, 2026)
# Where no end group is shown, it is not given here.
# Legend:
# [1] = In vivo plasma pharmacokinetics; design: species or system mouse (C57BL/6); conditions: male C57BL/6 mouse, 5 mg/kg intraperitoneal, LC-MS/MS
# Description: Blood samples (100 µl) were obtained at 0, 0.25, 0.5, 1, 2, 4, 8, and 24 h via tail vein bleeds.
# [2] = In vitro plasma stability; format: in vitro ADME, mouse (C57BL/6); conditions: LC-MS/MS
# Description: Each aliquot (50 µl) was mixed with 150 µl methanol, vortexed, spun, removed the supernatant and reconstituted the pellet with 150 µl 10% formic acid in water. The sample was vortexed and spun, and a 100 µl aliquot was taken, diluted 1:1 with 10 mM ammonium bicarbonate, and analyzed by LC-MS/MS. Using the remaining vs. time dataset, we performed a first-order decay analysis by fitting a linear regression to the natural log-transformed percent remaining values (excluding 0% and t = 0 anchor point) to plot the graph.
# [3] = tested on: B16F10-derived tumors in C57BL/6 mice; assay: B16F10 melanoma mouse tumor model; format: in vivo; conditions: CST 10 mg/kg intraperitoneally, three times per week
# Description: Age-matched male and female C57BL/6 mice (7–9 weeks, n = 9) were subcutaneously injected with 5 × 10⁴ B16-F10 cells in 100 µL PBS. […] Tumor dimensions were measured with calipers, and volume was calculated using the formula V = (length × width²)/2. Mice were euthanized 22 days post-inoculation by inhalational isoflurane, that follow the institutional IACUC protocol and AVMA guideline for Euthanasia of animals (2020). […] Animals were continuously monitored till the loss of righting reflex and response to toe pinch was absent, thus confirming a surgical plane of anesthesia. Tissues were collected when the animals went into deep anesthesia and euthanasia was finally completely by exsanguination. […]
# Fixed tumors were paraffin-embedded and sectioned (5 µm). […] The area fraction was calculated as the percentage of pixels that exceeded the threshold within the defined region of interest (ROI). Quantification was performed using Fiji (ImageJ), which computes the area fraction as the ratio of the threshold-positive area to the total ROI area, expressed as a percentage.
# Apoptotic nuclei were detected in tumor sections using the CF®594 TUNEL Assay Kit (Biotium #30064). […] Fluorescence images were obtained using a Keyence microscope.
# For tissue lysates from wild-type and CST-knockout (CST-KO) mice, 10 µg of total protein was analyzed by immunoblotting using an anti-CST antibody. […]
# [4] = tested on: Vemurafenib-resistant A375 cells; assay: Cell viability (CCK-8) of Vemurafenib-resistant A375 cells; format: cell-based, human
# Description: Viability was determined using the CCK-8 reagent (APExBIO-K1018). Absorbance was measured at 450 nm using a Varioskan LUX reader.
# Vemurafenib-resistant A375 cells were generated following established protocol. Parental cells were treated with 100 nM Vemurafenib (SelleckChem #S1267) for 2 weeks, followed by stepwise doubling of drug concentration every 2 weeks up to 3.2 µM. Surviving cells in maintenance culture containing 2 µM drug were used for downstream studies.
Molecule,"Cmax ([1]; ip, plasma from tail vein bleeds 0-24 h, read-out: Cmax (maximum concentration))",Tmax (time to reach Cmax) ([1]; plasma),t1/2 (half-life) in vivo ([1]; plasma),"intact material remaining ([2]; in vitro mouse plasma, 5 µg CST/ml, at ~5.6 h)","apparent first-order rate constant k ([2]; in vitro, C57BL/6 mouse plasma spiked with 5 µg CST/ml, aliquots over 24 h, linear regression of ln(% remaining) vs time, R^2 = 0.971)",body weight and liver histology [3],"cell viability of A375 resistant cells, single agents and combination ([4]; Vemurafenib 2 µM, CST 2 µM, alone or combined, after 48 h)",IC50 of resistant cells relative to parental cells ([4]; Vemurafenib-resistant vs parental A375)
"SSMKLSFRARAYGFRGPGPQL [CST, Catestatin]",160 ng/mL,15 min,89.4 min,~ 50%,0.1246 h⁻¹,No major changes in body weight or liver histology,,
CCCS(=O)(=O)Nc1ccc(F)c(C(=O)c2c[nH]c3ncc(-c4ccc(Cl)cc4)cc23)c1F [Vemurafenib],,,,,,,little effect on cell viability,> 6 fold
